Source: US11304974B2, “Nanosystems comprising silver and antibiotics and their use for the treatment of bacterial infections” (priority 2017, dated 2022)
Read-outs that look alike come from different tables or passages of the source.

Key:
[1] = tested on: S. epidermidis Se-1 (strain 14); experiment: Checkerboard synergy test collargol-vancomycin (Example 5); settings: Staphylococcus epidermidis, read-out: MIC (product alone, Checkerboard test)
Description: (§3) To determine the existence of synergistic activity between collargol and vancomycin, a checkerboard test using plates having a “U”-shaped bottom (TPP) of 96 wells was used. Double subinhibitory serial dilutions of the two antimicrobials were prepared, so that the concentration of collargol decreased vertically (up-down) and the concentration of vancomycin decreased horizontally (left-right).
(§4) To quantify the synergistic activity of the two combined compounds, the Index fractional inhibitory concentration (IFIC) parameter was used. This index relates MIC of the antimicrobial 1 with the antimicrobial 2 alone and in combination, according to the following formula:
(§5) It is considered that there is synergistic effect if the IFIC value is <0.5.
(§6) The procedure was as follows: • Preparation of fresh cultures of each of the strains on blood agar (37° C., 24 h). […] The well wherein the minimum value of IFIC is obtained is chosen.

[2] = tested on: S. aureus Sa-10 (strain 9); experiment: as above; settings: Staphylococcus aureus, read-out: MIC (product alone, Checkerboard test)
Description: as §3, §4, §5, §6

[3] = tested on: S. aureus Sa-3 (strain 3); experiment: as above; settings: Staphylococcus aureus, read-out: MIC (product alone, Checkerboard test)
Description: as §3, §4, §5, §6

Gram Positive Bacteria = experiment: Silver-antibiotics interaction study, MicroScan (Example 4); format: cell-based, S. aureus; settings: subinhibitory colloidal silver (½ or 1/10 MIC)
Description: The effect of subinhibitory concentrations of colloidal silver (namely, ½ and 1/10 dilution of the MIC obtained in Example 3) in the presence of different types of antibiotics was tested.
For this, an automated equipment MicroScan AutoScan 4 (Siemens) was used, using Gram negative (Becman Coulter NM37) and Gram positive (Becman Coulter PM28) cards.
Each of these broths served as inoculum for the cards with antibiotics (for each strain, thus 3 cards were prepared). • Incubating the plates with antibiotics (in presence and absence of silver) at 37° C. for 24 h. • Reading the cards by use of LabPro software, and interpretation of the obtained values of MIC (determine if the silver reduces the initial MCI of each antibiotic).

[4] = tested on: S. aureus Sa-12 (strain 11); experiment: Checkerboard synergy test collargol-vancomycin (Example 5); settings: Staphylococcus aureus, read-out: MIC (product alone, Checkerboard test)
Description: as §3, §4, §5, §6

[5] = tested on: S. aureus Sa-11 (strain 10); experiment: as above; settings: Staphylococcus aureus, read-out: MIC (product alone, Checkerboard test)
Description: as §3, §4, §5, §6

[6] = tested on: S. aureus Sa-12 (strain 11); experiment: Epsilometry E-test, absence and presence of silver (Example 5); format: cell-based; settings: Staphylococcus aureus
Description: (§1) In order to evaluate the synergy of collargol-antibiotics an epsilometry E-test was carried out. Said test is based on the agar diffusion method and relates to using a strip with a predefined steady gradient of 15 concentrations of the antibiotic being tested. After strain growth, an elliptical inhibition halo, being the MIC the antibiotic concentration corresponding to the cutting point.
(§2) It was performed for the antibiotics vancomycin, linezolid and tedizolid, in absence and presence of silver (½ and 1/10 MIC).

[7] = tested on: S.aureus ATCC 700698 Sa-SARM (strain 15); experiment: as above; format: cell-based; settings: Staphylococcus aureus
Description: as §1, §2

[8] = tested on: S. aureus Sa-9 (strain 8); experiment: as above; format: cell-based; settings: Staphylococcus aureus
Description: as §1, §2

[9] = tested on: S. aureus Sa-10 (strain 9); experiment: as above; format: cell-based; settings: Staphylococcus aureus
Description: as §1, §2

[10] = tested on: S. aureus Sa-11 (strain 10); experiment: as above; format: cell-based; settings: Staphylococcus aureus
Description: as §1, §2

[11] = tested on: S. aureus Sa-14 (strain 13); experiment: as above; format: cell-based; settings: Staphylococcus aureus, strain 13 (S. aureus Sa-14)
Description: as §1, §2

[12] = tested on: S. epidermidis Se-1 (strain 14); experiment: as above; format: cell-based; settings: Staphylococcus epidermidis
Description: as §1, §2

[13] = tested on: S. aureus Sa-3 (strain 3); experiment: as above; format: cell-based; settings: Staphylococcus aureus
Description: as §1, §2

[14] = tested on: S. aureus Sa-1 (strain 1); experiment: as above; format: cell-based; settings: Staphylococcus aureus
Description: as §1, §2

[15] = tested on: S. aureus Sa-13 (strain 12); experiment: as above; format: cell-based; settings: Staphylococcus aureus
Description: as §1, §2

[16] = read-out: MIC (E-test) MH (without silver)
[17] = read-out: MIC (E-test) MH-1/10 MIC
[18] = read-out: MIC (E-test) MH-½ MIC

CN[C@H](CC(C)C)C(=O)N[C@H]1C(=O)N[C@@H](CC(N)=O)C(=O)N[C@H]2C(=O)N[C@H]3C(=O)N[C@H](C(=O)N[C@H](C(=O)O)c4cc(O)cc(O)c4-c4cc3ccc4O)[C@H](O)c3ccc(c(Cl)c3)Oc3cc2cc(c3O[C@@H]2O[C@H](CO)[C@@H](O)[C@H](O)[C@H]2O[C@H]2C[C@](C)(N)[C@H](O)[C@H](C)O2)Oc2ccc(cc2Cl)[C@H]1O [Vancomycin]
improved sensitivity: Effect of silver on the strain's sensitivity to the antibiotic (Gram Positive Bacteria)
0.75 µg/mL: MIC [8, 18] | MIC [12, 16] | MIC [13, 16] | MIC [13, 17]
0.38 µg/mL: MIC [9, 18] | MIC [10, 17] | MIC ([11]; MH agar with 1/10 MIC of colargol, read-out: MIC (E-test) MH-1/10 MIC) | MIC ([11]; MH agar without silver, read-out: MIC (E-test) MH (without silver)) | MIC [12, 18] | MIC [13, 18] | MIC [14, 18] | MIC [15, 18]
1 µg/mL: MIC [1] | MIC [2] | MIC [3] | MIC [4] | MIC [5] | MIC [6, 16] | MIC [6, 17] | MIC ([7]; ATCC700698, read-out: MIC (E-test) MH-1/10 MIC) | MIC ([7]; ATCC700698, read-out: MIC (E-test) MH-½ MIC) | MIC [8, 16] | MIC [8, 17] | MIC [9, 16] | MIC [9, 17]
1.5 µg/mL: MIC ([7]; ATCC700698, read-out: MIC (E-test) MH (without silver))
0.5 µg/mL: MIC [6, 18] | MIC [10, 16] | MIC [12, 17] | MIC [14, 16] | MIC [14, 17] | MIC [15, 16] | MIC [15, 17]
0.25 µg/mL: MIC [10, 18] | MIC ([11]; MH agar with ½ MIC of colargol, read-out: MIC (E-test) MH-½ MIC)
